26 compounds from ChEMBL document CHEMBL4270581, “Synthesis of carbohydrazides and carboxamides as anti-tubercular agents” (Eur J Med Chem, 2018) can be followed below.

Each structure is given as a SMILES string. Values after ≈ are worked out from the molar mass of the structure shown.

In data set [1] the target is T1, Enoyl-[acyl-carrier-protein] reductase [NADH] (Mycobacterium tuberculosis) (UniProt P9WGR1).
T1 sequence (whole entry): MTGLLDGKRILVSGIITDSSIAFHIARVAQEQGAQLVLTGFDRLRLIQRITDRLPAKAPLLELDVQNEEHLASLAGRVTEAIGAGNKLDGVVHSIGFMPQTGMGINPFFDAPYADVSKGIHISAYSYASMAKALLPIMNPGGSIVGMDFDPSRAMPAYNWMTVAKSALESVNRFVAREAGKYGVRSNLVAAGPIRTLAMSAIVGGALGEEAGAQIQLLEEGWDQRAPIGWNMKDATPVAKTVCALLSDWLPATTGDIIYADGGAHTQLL
Description: Inhibition of replicating Mycobacterium tuberculosis H37Rv InhA assessed as cell growth inhibition after 7 days by MABA method. (The colour change of resazurin is a common sign of viable cells or microbes.)

The nature of data set [2]: Cytotoxicity against HEK293 cells assessed as inhibition of cell viability at 25 ug/ml after 48 hrs by MTT assay relative to control. The settings on record: human, read-out: INH. The format is cell-based. On the technique in general: Tetrazolium dyes change colour on reduction, which living cells bring about.

`Cc1ccc(C(=O)NNC(=O)[C@H](Cc2ccc(O)cc2)NC(=O)c2ccc(-c3ccccc3)o2)cc1`: the MIC in data set [1] was 12.5 µg/mL (≈ 25.9 µM).

As for `CC[C@@H](CO)NCCN[C@@H](CC)CO`, the MIC in data set [1] is 1.56 µg/mL (≈ 7.64 µM).

Consider `CSc1ccc(-c2ccc(C(=O)NNC(=O)c3ccco3)o2)cc1`, for which, in data set [1], the MIC amounted to 6.25 µg/mL (≈ 18.3 µM). In addition, the cytotoxicity at 48 h, 25 ug/ml in data set [2] was determined as 11.6%.

With `COc1ccc(C(=O)NNC(=O)[C@H](Cc2ccc(O)cc2)NC(=O)c2ccc(-c3ccc(OC)cc3)o2)cc1`, the MIC in data set [1] was found to be 0.78 µg/mL (≈ 1.47 µM). Further, the cytotoxicity at 48 h, 25 ug/ml in data set [2] came out at 29.9%.

As to `NNC(=O)c1ccncc1`, in data set [1], the MIC was determined as 0.1 µg/mL (≈ 0.729 µM).

Regarding `Cc1ccc(C(=O)NNC(=O)c2ccc(-c3ccccc3S(C)(=O)=O)o2)cc1`, the MIC in data set [1] came out at 3.12 µg/mL (≈ 7.84 µM). Further, the cytotoxicity at 48 h, 25 ug/ml in data set [2] was determined as 22.9%.

With `COc1ccc(C(=O)NNC(=O)[C@H](Cc2ccc(O)cc2)NC(=O)c2ccc(-c3ccc(F)cc3)s2)cc1`, in data set [1], the MIC was 1.56 µg/mL (≈ 2.92 µM). Moreover, the cytotoxicity at 48 h, 25 ug/ml in data set [2] is 23.6%.

For `O=C(NNC(=O)[C@H](Cc1ccc(O)cc1)NC(=O)c1ccc(-c2ccccc2)o1)c1ccc(Br)cc1`, the MIC in data set [1] was 0.78 µg/mL (≈ 1.42 µM). The cytotoxicity at 48 h, 25 ug/ml in data set [2] was 16.3%.

Take `O=C(NNc1nc2ccccc2s1)c1ccc(-c2ccccc2)o1`: the MIC in data set [1] came out at 25 µg/mL (≈ 74.5 µM).

Consider `CSc1ccc(-c2ccc(C(=O)NNC(=O)c3ccc(F)cc3)o2)cc1`, for which the MIC in data set [1] stood at 0.39 µg/mL (≈ 1.05 µM). For the same compound, the cytotoxicity at 48 h, 25 ug/ml in data set [2] was determined as 27%.

In the case of `O=C(NNC(=O)[C@H](Cc1ccc(O)cc1)NC(=O)c1ccc(Br)o1)c1ccc(F)cc1`, the MIC in data set [1] is over 25 µg/mL.

As to `O=C(NNC(=O)[C@H](Cc1ccc(O)cc1)NC(=O)c1ccc(Br)o1)c1ccc(Cl)cc1`, in data set [1], the MIC came to 12.5 µg/mL (≈ 24.7 µM).

On to `O=C(NNC(=O)[C@H](Cc1ccc(O)cc1)NC(=O)c1ccc(-c2ccc(F)cc2)s1)c1ccc(F)cc1`, for which the MIC in data set [1] stood at 6.25 µg/mL (≈ 12 µM). For the same compound, the cytotoxicity at 48 h, 25 ug/ml in data set [2] is 22.9%.

`O=C(NNC(=O)[C@H](Cc1ccc(O)cc1)NC(=O)c1ccc(-c2ccc(F)cc2)s1)c1ccc(Cl)cc1`: the MIC in data set [1] was found to be 0.78 µg/mL (≈ 1.45 µM). Moreover, the cytotoxicity at 48 h, 25 ug/ml in data set [2] was 17%.

For `COc1ccccc1C(=O)NNC(=O)c1ccc(-c2ccc(SC)cc2)o1`, the MIC in data set [1] turned out to be 12.5 µg/mL (≈ 32.7 µM).

Take `CSc1ccc(-c2ccc(C(=O)NNC(=O)c3ccc(C(C)(C)C)cc3)o2)cc1`: in data set [1], the MIC worked out at 6.25 µg/mL (≈ 15.3 µM). The cytotoxicity at 48 h, 25 ug/ml in data set [2] was 10.6%.

On to `CSc1ccc(-c2ccc(C(=O)NNC(=O)c3ccccc3F)o2)cc1`, for which the MIC in data set [1] came out at 6.25 µg/mL (≈ 16.9 µM). The cytotoxicity at 48 h, 25 ug/ml in data set [2] was found to be 16.9%.

As to `COc1ccc(C(=O)NNC(=O)c2ccc(-c3ccccc3SC)s2)cc1`, in data set [1], the MIC was over 25 µg/mL.

Regarding `O=C(NNC(=O)[C@H](Cc1ccc(O)cc1)NC(=O)c1ccc(-c2ccc(F)cc2)o1)c1ccc(Br)cc1`, the MIC in data set [1] came to 25 µg/mL (≈ 44.1 µM).

As to `O=C(N[C@@H](Cc1ccc(O)cc1)C(=O)NNC(=O)c1ccccc1F)c1ccc(-c2ccc(F)cc2)s1`, the MIC in data set [1] was over 25 µg/mL.

For `CO[C@H]1/C=C/O[C@@]2(C)Oc3c(C)c(O)c4c(O)c(c(/C=N/N5CCN(C)CC5)c(O)c4c3C2=O)NC(=O)/C(C)=C\C=C\[C@H](C)[C@H](O)[C@@H](C)[C@@H](O)[C@@H](C)[C@H](OC(C)=O)[C@@H]1C`, the MIC in data set [1] was 0.2 µg/mL (≈ 0.243 µM).

With `CC(C)(C)c1ccc(C(=O)NNC(=O)[C@H](Cc2ccc(O)cc2)NC(=O)c2ccc(-c3ccccc3)o2)cc1`, the MIC in data set [1] worked out at 0.78 µg/mL (≈ 1.48 µM). Further, the cytotoxicity at 48 h, 25 ug/ml in data set [2] was found to be 18.7%.

With `COc1ccc(C(=O)NNC(=O)[C@H](Cc2ccc(O)cc2)NC(=O)c2ccc(Br)o2)cc1`, in data set [1], the MIC is over 25 µg/mL.

Turning to `COc1ccc(C(=O)NNC(=O)c2ccc(-c3ccc(SC)cc3)o2)cc1`, the MIC in data set [1] amounted to 0.78 µg/mL (≈ 2.04 µM). Also, the cytotoxicity at 48 h, 25 ug/ml in data set [2] is 17.4%.

As to `CC(C)(C)c1ccc(C(=O)NNC(=O)[C@H](Cc2ccc(O)cc2)NC(=O)c2ccc(Br)o2)cc1`, the MIC in data set [1] was 3.12 µg/mL (≈ 5.91 µM). The cytotoxicity at 48 h, 25 ug/ml in data set [2] was found to be 26.6%.

Take `CSc1ccc(-c2ccc(C(=O)NNC(=O)c3ccc(O)cc3)o2)cc1`: the MIC in data set [1] came out at 0.78 µg/mL (≈ 2.12 µM). Besides, in data set [2], the cytotoxicity at 48 h, 25 ug/ml amounted to 17.4%.
